Reference: PubChem BioAssay (NCI)
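Method: 48-hour compound exposure of cells in 96-well plates, five concentrations, linear interpolation of endpoints. GI50 marks 50% less growth. TGI is the concentration that stops growth completely.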

Key:
Assay in all cases: NCI-60 cell line screen, 48 h
ACHN renal = tested on: ACHN renal
HCT-15 colon = tested on: HCT-15 colon
NCI/ADR-RES ovarian = tested on: NCI/ADR-RES ovarian
MDA-MB-231 breast = tested on: MDA-MB-231 breast
SNB-19 CNS = tested on: SNB-19 CNS
MOLT-4 leukemia = tested on: MOLT-4 leukemia
UACC-62 melanoma = tested on: UACC-62 melanoma
PC-3 prostate = tested on: PC-3 prostate
SW-620 colon = tested on: SW-620 colon
KM12 colon = tested on: KM12 colon
RXF 393 renal = tested on: RXF 393 renal
CCRF-CEM leukemia = tested on: CCRF-CEM leukemia
NCI-H460 lung = tested on: NCI-H460 lung
LOX IMVI melanoma = tested on: LOX IMVI melanoma
HOP-92 NSCLC = tested on: HOP-92 NSCLC
SF-295 CNS = tested on: SF-295 CNS
OVCAR-5 ovarian = tested on: OVCAR-5 ovarian
RPMI-8226 leukemia = tested on: RPMI-8226 leukemia
786-0 renal = tested on: 786-0 renal
BT-549 breast = tested on: BT-549 breast
A549 NSCLC = tested on: A549 NSCLC
SK-OV-3 ovarian = tested on: SK-OV-3 ovarian
HCC-2998 colon = tested on: HCC-2998 colon
SNB-75 CNS = tested on: SNB-75 CNS
MDA-MB-435 = tested on: MDA-MB-435
MCF7 breast = tested on: MCF7 breast
UACC-257 melanoma = tested on: UACC-257 melanoma
HOP-62 NSCLC = tested on: HOP-62 NSCLC
HL-60(TB) leukemia = tested on: HL-60(TB) leukemia
SK-MEL-2 melanoma = tested on: SK-MEL-2 melanoma
OVCAR-4 ovarian = tested on: OVCAR-4 ovarian
HT29 colon = tested on: HT29 colon
U251 CNS = tested on: U251 CNS
SR leukemia = tested on: SR leukemia
SK-MEL-28 melanoma = tested on: SK-MEL-28 melanoma
TK-10 renal = tested on: TK-10 renal
DU-145 prostate = tested on: DU-145 prostate
CAKI-1 renal = tested on: CAKI-1 renal
SN12C renal = tested on: SN12C renal
NCI-H23 lung = tested on: NCI-H23 lung
SF-539 CNS = tested on: SF-539 CNS
HCT-116 colon = tested on: HCT-116 colon
COLO 205 colon = tested on: COLO 205 colon
HS 578T breast = tested on: HS 578T breast
NCI-H522 lung = tested on: NCI-H522 lung
A498 renal = tested on: A498 renal
NCI-H226 lung = tested on: NCI-H226 lung
IGROV1 ovarian = tested on: IGROV1 ovarian
T-47D breast = tested on: T-47D breast
OVCAR-8 ovarian = tested on: OVCAR-8 ovarian
K-562 leukemia = tested on: K-562 leukemia
EKVX NSCLC = tested on: EKVX NSCLC
OVCAR-3 ovarian = tested on: OVCAR-3 ovarian
UO-31 renal = tested on: UO-31 renal
SK-MEL-5 melanoma = tested on: SK-MEL-5 melanoma
M14 melanoma = tested on: M14 melanoma
SF-268 CNS = tested on: SF-268 CNS
MALME-3M melanoma = tested on: MALME-3M melanoma

CN1CCN(Cc2ccc(NC(=O)c3cncc(C#Cc4cnc5ccc(O[C@@H]6CCOC6)nn45)c3)cc2C(F)(F)F)CC1
GI50 (ACHN renal): 171 nM
TGI (ACHN renal): 670 nM
GI50 (HCT-15 colon): 161 nM
TGI (HCT-15 colon): 639 nM
GI50 (NCI/ADR-RES ovarian): 676 nM
TGI (NCI/ADR-RES ovarian): 1910 nM
GI50 (MDA-MB-231 breast): 82.5 nM
TGI (MDA-MB-231 breast): 475 nM
GI50 (SNB-19 CNS): 301 nM
TGI (SNB-19 CNS): 1220 nM
GI50 (MOLT-4 leukemia): 81.8 nM
TGI (MOLT-4 leukemia): 1320 nM
GI50 (UACC-62 melanoma): 165 nM
TGI (UACC-62 melanoma): 809 nM
GI50 (PC-3 prostate): 277 nM
TGI (PC-3 prostate): 1210 nM
GI50 (SW-620 colon): 153 nM
TGI (SW-620 colon): 623 nM
GI50 (KM12 colon): 5 nM
TGI (KM12 colon): 539 nM
GI50 (RXF 393 renal): 143 nM
TGI (RXF 393 renal): 405 nM
GI50 (CCRF-CEM leukemia): 75.1 nM
TGI (CCRF-CEM leukemia): 3050 nM
GI50 (NCI-H460 lung): 182 nM
TGI (NCI-H460 lung): 703 nM
GI50 (LOX IMVI melanoma): 139 nM
TGI (LOX IMVI melanoma): 635 nM
GI50 (HOP-92 NSCLC): 27.3 nM
TGI (HOP-92 NSCLC): 117 nM
GI50 (SF-295 CNS): 454 nM
TGI (SF-295 CNS): 1180 nM
GI50 (OVCAR-5 ovarian): 223 nM
TGI (OVCAR-5 ovarian): 883 nM
GI50 (RPMI-8226 leukemia): 265 nM
TGI (RPMI-8226 leukemia): 1260 nM
GI50 (786-0 renal): 265 nM
TGI (786-0 renal): 833 nM
GI50 (BT-549 breast): 646 nM
TGI (BT-549 breast): 1290 nM
GI50 (A549 NSCLC): 195 nM
TGI (A549 NSCLC): 693 nM
GI50 (SK-OV-3 ovarian): 449 nM
TGI (SK-OV-3 ovarian): 1120 nM
GI50 (HCC-2998 colon): 260 nM
TGI (HCC-2998 colon): 886 nM
GI50 (SNB-75 CNS): 124 nM
TGI (SNB-75 CNS): 510 nM
GI50 (MDA-MB-435): 125 nM
TGI (MDA-MB-435): 653 nM
GI50 (MCF7 breast): 80.4 nM
TGI (MCF7 breast): 580 nM
GI50 (UACC-257 melanoma): 531 nM
TGI (UACC-257 melanoma): 1240 nM
GI50 (HOP-62 NSCLC): 176 nM
TGI (HOP-62 NSCLC): 641 nM
GI50 (HL-60(TB) leukemia): 75.2 nM
TGI (HL-60(TB) leukemia): 364 nM
GI50 (SK-MEL-2 melanoma): 114 nM
TGI (SK-MEL-2 melanoma): 321 nM
GI50 (OVCAR-4 ovarian): 155 nM
TGI (OVCAR-4 ovarian): 940 nM
GI50 (HT29 colon): 111 nM
TGI (HT29 colon): 602 nM
GI50 (U251 CNS): 270 nM
TGI (U251 CNS): 933 nM
GI50 (SR leukemia): 82.3 nM
TGI (SR leukemia): 490 nM
GI50 (SK-MEL-28 melanoma): 186 nM
TGI (SK-MEL-28 melanoma): 813 nM
GI50 (TK-10 renal): 177 nM
TGI (TK-10 renal): 632 nM
GI50 (DU-145 prostate): 187 nM
TGI (DU-145 prostate): 642 nM
GI50 (CAKI-1 renal): 122 nM
TGI (CAKI-1 renal): 596 nM
GI50 (SN12C renal): 120 nM
TGI (SN12C renal): 636 nM
GI50 (NCI-H23 lung): 178 nM
TGI (NCI-H23 lung): 729 nM
GI50 (SF-539 CNS): 99.8 nM
TGI (SF-539 CNS): 715 nM
GI50 (HCT-116 colon): 64.9 nM
TGI (HCT-116 colon): 454 nM
GI50 (COLO 205 colon): 109 nM
TGI (COLO 205 colon): 220 nM
GI50 (HS 578T breast): 127 nM
TGI (HS 578T breast): 565 nM
GI50 (NCI-H522 lung): 107 nM
TGI (NCI-H522 lung): 277 nM
GI50 (A498 renal): 606 nM
TGI (A498 renal): 1250 nM
GI50 (NCI-H226 lung): 47.8 nM
TGI (NCI-H226 lung): 911 nM
GI50 (IGROV1 ovarian): 89.4 nM
TGI (IGROV1 ovarian): 587 nM
GI50 (T-47D breast): 556 nM
TGI (T-47D breast): 1310 nM
GI50 (OVCAR-8 ovarian): 160 nM
TGI (OVCAR-8 ovarian): 634 nM
GI50 (K-562 leukemia): 5 nM
TGI (K-562 leukemia): 1790 nM
GI50 (EKVX NSCLC): 288 nM
TGI (EKVX NSCLC): 942 nM
GI50 (OVCAR-3 ovarian): 194 nM
TGI (OVCAR-3 ovarian): 768 nM
GI50 (UO-31 renal): 173 nM
TGI (UO-31 renal): 682 nM
GI50 (SK-MEL-5 melanoma): 586 nM
TGI (SK-MEL-5 melanoma): 1220 nM
GI50 (M14 melanoma): 66.2 nM
TGI (M14 melanoma): 181 nM
GI50 (SF-268 CNS): 158 nM
TGI (SF-268 CNS): 562 nM
GI50 (MALME-3M melanoma): 61.3 nM
TGI (MALME-3M melanoma): 294 nM
